Reference: patent US20120022142A1, “RNA Interference Mediated Inhibition of Signal Transducer and Activator of Transcription 1 (STAT1) Gene Expression Using Short Interfering Nucleic Acid (siNA)” (Merck Sharp & Dohme Corp., priority 2009, published 2012)
[invAb] = inverted abasic unit; m = 2'-O-methyl; r = 2'-OH (RNA); f = 2'-fluoro

Experiments:
STAT1 human mRNA = experiment: Initial screen of siNAs: STAT1 mRNA knock-down in A549 cells (96-well transfection, Taqman RT-PCR); format: cell-based; conditions: 10 nM siNA, 24 hrs, normalized against GAPDH, average of 2 experiments
Method: A549 (human; ATCC cat# CCL-185): Cells were cultured at 37° C. in the presence of 5% CO2 and grown in Ham's F12K medium with 2 mM L-glutamine adjusted to contain 1.5 g/L sodium bicarbonate and supplemented with fetal bovine serum at a final concentration of 10% and 100 μg/mL of streptomycin and 100 U/mL penicillin.
(§1) Cells were plated in all wells of a tissue-culture treated, 96-well plate at a final count of 5000 cells/well in 100 μL of the appropriate culture media. The cells were cultured for 24 hours after plating at 37° C. in the presence of 5% CO2.
(§2) After 24 hours, complexes containing siNA and RNAiMax were created as follows: A solution of RNAiMax diluted 33-fold in OPTI-MEM was prepared. In parallel, solutions of the siNAs for testing were prepared to a final concentration of 120 nM in OPTI-MEM. After incubation of RNAiMax/OPTI-MEM solution at room temperature for 5 min, an equal volume of the siNA solution and the RNAiMax solution were added together for each of the siNAs.
(§3) This solution was incubated at room temperature for 20 minutes. After incubation, 20 uL of the solution was added to each of the relevant wells. The final concentration of siNA in each well was 10 nM and the final volume of RNAiMax in each well was 0.3 ul.
(§4) The time of incubation with the RNAiMax-siNA complexes was 24 hours and there was no change in media between transfection and harvesting, unless otherwise indicated.
(§5) RNA was extracted from a 96-well plate using the TaqMan® Gene Expression Cells-to-CT™ Kit (Cat# 4399002) with a modified protocol. Briefly, a 60 uL (1 plate) or 110 uL (2 plates) of the Lysis Solution with DNase I was dispensed into each well of the Lysis Buffer Plate (twin.tec full skirt plate). The lysis buffer and stop plates were stored at 4° C. until the cells were washed.
(§6) The culture medium was aspirated and discarded from the wells of the culture plate. 50 uL of chilled DPBS was added to each well, then aspirated and discarded. The lysis was performed automatically using a BioMek FX instrument and method. After the Biomek method was completed, the lysis plate was incubated for 2 min at room temperature. The lysis plate can be stored for 2 hours at 4° C., or at −20° C. or −80° C. for two months.
(§7) Each well of the reverse transcription plate required 10 uL of 2× reverse transcriptase Buffer, 1 uL of 20× reverse transcription enzyme and 2 uL of nuclease-free water. The reverse transcription master mix was prepared by mixing 2× reverse transcription buffer, 20× reverse transcription enzyme mix, and nuclease-free water. 13 uL of the reverse transcription master mix was dispensed into each well of the reverse transcription plate (semi-skirted). A separate reverse transcription plate was prepared for each cell plate. The plate was loaded onto a Biomek NX or Biomek FX Dual-96 and the Biomek method was run. The program is programmed to automatically added 7 uL of lysate from the cell lysis procedure described above into each well of the reverse transcription plate. The plate is sealed and spun on a centrifuge (1000 rpm for 30 seconds) to settle the contents to the bottom of the reverse transcription plate. The plate is placed in a thermocycler at 37° C. for 60 min, 95° C. for 5 min, and 4° C. until the plate is removed from the thermocycler. Upon removal, if not used immediately, the plate was frozen at −20° C.
(§8) A series of probes and primers were used to detect the various mRNA transcripts of the genes of β-Actin (human cell line only), and of STAT1 and GAPDH in mouse and human cell lines. All Taqman probes and primers for the experiments here-in described were supplied as pre-validated sets by Applied Biosystems, Inc. (see Table 2).
The assays were performed on an ABI 7900 instrument, according to the manufacturer's instructions.
Within each experiment, the baseline was set in the exponential phase of the amplification curve, and based on the intersection point of the baselines with the amplification curve, a Ct value was assigned by the instrument. […]

STAT1 mouse mRNA = experiment: Initial screen of siNAs: STAT1 mRNA knock-down in NIH 3T3 cells (96-well transfection, Taqman RT-PCR); format: cell-based; conditions: 10 nM siNA, 24 hrs, normalized against GAPDH, average of 2 experiments
Method: NIH 3T3 (mouse; ATCC cat# CRL-1658): Cells were cultured at 37° C. in the presence of 5% CO2 and grown in Dulbecco's modified Eagle's medium (DMEM) with 4 mM L-glutamine adjusted to contain 1.5 g/L sodium bicarbonate and 4.5 g/L glucose and supplemented with fetal bovine serum at a final concentration of 10%, 100 μg/mL of streptomycin, and 100 U/mL penicillin.
as §1, §2, §3, §4, §5, §6, §7, §8
The assays were performed on an ABI 7900 instrument, according to the manufacturer's instructions. […]

TLR3 = TLR3 mediated immunostimulation (OAS1 mRNA increase) in NHBE cells; format: cell-based, human; conditions: % increase in OAS1 mRNA, 0.01-100 nM siNA, n = 3 donors
Method: NHBE cell were treated as describe above in Example 2 and used for the measurement of endosomal TLR3 mediated immunostimulation, with the inclusion of polyI:C as a positive control for OAS1 mRNA upregulation. For the measurement of membrane bound TLR3 mediated immunostimulation, the NHBE cells were cultured at 1200 cells/per 96 well and siNAs administered in PBS in the absence of a delivery vehicle at (100 nM, 30 nM, 10 nM, 3 nM, 1 nM, 0.3 nM, 0.1 nM, 0.03 nM, 0.01 nM).
Cell surface TLR3 mediated immunostimulation responses were measured by recording the % increase in OAS1 mRNA levels when the NHBE cells were treated with the siNAs in the absence of a delivery vehicle. (% increase in OAS1 mRNA levels relative to the PBS dilutant).
To determine immunostimulation TLR3 mediated % increase in OAS1(immunostimulatory biomarker) mRNA levels, a nine point dose response was measured using 0.01-100 nM concentration of siNA 25368-DC and siNA 25372-DC.
Endosomal TLR3 mediated immuno stimulation was measured by recording the % increase in OAS1 mRNA levels when the NHBE cells were transfected with the siNAs. (% increase in OAS1 mRNA levels relative to the transfection agent control). The TLR3 agonist Poly I:C is used as a positive control for OAS1 mRNA induction.

Substance | % KD Human (STAT1 human mRNA) | % KD Mouse (STAT1 mouse mRNA) | Immunostimulation TLR3 mediated OAS1 (TLR3)
25351-DC: STAT1 siNA duplex, human target site 2249; modified strands SEQ ID NO: 39 and 40 (chain 1 CCUACACGAAGAAAGAACUTT; chain 2 AGUUCUUUCUUCGUGUAGGUU; chain 1: DNA at AGT, 2'-fluoro at CU, [invAb] at 5' end, 3' end, backbone not given here; chain 2: sugars from the 5' end rrrfffffffffmfmfmmmmm, backbone not given here) | 90% | 82% | –
25367-DC: STAT1 siNA duplex, human target site 966; modified strands SEQ ID NO: 71 and 72 (chain 1 GCUUGACAAUAAGAGAAAGTT; chain 2 CUUUCUCUUAUUGUCAAGCUU; chain 1: DNA at AGT, 2'-fluoro at CU, [invAb] at 5' end, 3' end, backbone not given here; chain 2: sugars from the 5' end rrrffffffmffmffmmmfmm, backbone not given here) | 91% | 82% | –
25368-DC: STAT1 siNA duplex, human target site 782; modified strands SEQ ID NO: 73 and 74 (chain 1 GUAAAGUCAGAAAUGUGAATT; chain 2 UUCACAUUUCUGACUUUACUU; chain 1: DNA at AGT, 2'-fluoro at CU, [invAb] at 5' end, 3' end, backbone not given here; chain 2: sugars from the 5' end rrrmfmfffffmmffffmfmm, backbone not given here) | 91% | 87% | No significant effect up to 100 nM
25369-DC: STAT1 siNA duplex, human target site 602; modified strands SEQ ID NO: 75 and 76 (chain 1 GGAAAAGCAAGCGUAAUCUTT; chain 2 AGAUUACGCUUGCUUUUCCUU; chain 1: DNA at AGT, 2'-fluoro at CU, [invAb] at 5' end, 3' end, backbone not given here; chain 2: sugars from the 5' end rrrffmfmfffmfffffffmm, backbone not given here) | 92% | 66% | –
25372-DC: STAT1 siNA duplex, human target site 968; modified strands SEQ ID NO: 81 and 82 (chain 1 UUGACAAUAAGAGAAAGGATT; chain 2 UCCUUUCUCUUAUUGUCAAUU; chain 1: DNA at AGT, 2'-fluoro at CU, [invAb] at 5' end, 3' end, backbone not given here; chain 2: sugars from the 5' end rrrffffffffmffmffmmmm, backbone not given here) | 92% | 81% | No significant effect up to 100 nM
